{"source": "patent US20260083674A1", "about": "“OXAZOLIDINONE LIPOSOME COMPOSITIONS” (priority 2021, published 2026)", "tested_on": "M. tuberculosis MDR strains M70, M28, M94, M14, TN5904 and H37Rv", "experiment": "microbe, parasite or virus in culture", "type": "cell-based, Mycobacterium tuberculosis", "details": "for MIC: Mycobacterium tuberculosis, H37RV; for MIC, μg/mL in M. tuberculosis strain: M14: MDR strain M14, MABA assay; for MIC, μg/mL in M. tuberculosis strain: M28: MDR strain M28, MABA assay; for MIC, μg/mL in M. tuberculosis strain: M70: MDR strain M70, MABA assay; for MIC, μg/mL in M. tuberculosis strain: M94: MDR strain M94, MABA assay; for MIC, μg/mL in M. tuberculosis strain: TN5904: MDR strain TN5904, MABA assay; for MIC, μg/mL in M. tuberculosis strain: H37Rv: drug-susceptible strain H37Rv, MABA assay", "key": {"[1]": {"details": "read-out: MIC, μg/mL in M. tuberculosis strain: M28"}, "[2]": {"details": "read-out: MIC, μg/mL in M. tuberculosis strain: M94"}}, "note": "Like-named read-outs stand apart in the source and are kept apart here.", "data": [{"smiles": "Cn1nnc(-c2ccc(-c3ccc(N4C[C@H](CN)OC4=O)cc3F)cn2)n1", "note": "[AKG-3]", "values": [{"measurement": "MIC", "setting": "[1]", "value": 0.06, "unit": "µg/mL"}, {"measurement": "MIC", "setting": "[2]", "value": 0.06, "unit": "µg/mL"}]}, {"smiles": "Cl.Cl.NCCn1nnc(-c2ccc(-c3ccc(N4C[C@H](CN)OC4=O)cc3F)cn2)n1", "note": "[AKG-29]", "values": [{"measurement": "MIC", "setting": "[1]", "value": 0.125, "unit": "µg/mL"}, {"measurement": "MIC", "setting": "[2]", "value": 0.125, "unit": "µg/mL"}]}, {"smiles": "CC(=O)NC[C@H]1CN(c2ccc(-c3ccc(-c4nnn(CCN(C)C)n4)nc3)c(F)c2)C(=O)O1", "note": "[AKG-38]", "values": [{"measurement": "MIC", "setting": "read-out: MIC, μg/mL in M. tuberculosis strain: TN5904", "value": 0.03, "unit": "µg/mL"}]}, {"smiles": "NNC(=O)c1ccncc1", "note": "[INH]", "values": [{"measurement": "MIC, μg/mL in M. tuberculosis strain: M14", "value": ">2", "unit": "µg/mL"}, {"measurement": "MIC, μg/mL in M. tuberculosis strain: M28", "value": ">2", "unit": "µg/mL"}, {"measurement": "MIC, μg/mL in M. tuberculosis strain: M70", "value": ">2", "unit": "µg/mL"}, {"measurement": "MIC, μg/mL in M. tuberculosis strain: M94", "value": ">2", "unit": "µg/mL"}, {"measurement": "MIC, μg/mL in M. tuberculosis strain: TN5904", "value": 2, "unit": "µg/mL"}, {"measurement": "MIC, μg/mL in M. tuberculosis strain: H37Rv", "value": 0.06, "unit": "µg/mL"}]}, {"smiles": "COc1c(N2C[C@@H]3CCCN[C@@H]3C2)c(F)cc2c(=O)c(C(=O)O)cn(C3CC3)c12", "note": "[MOX]", "values": [{"measurement": "MIC", "setting": "[2]", "value": 0.125, "unit": "µg/mL"}]}, {"smiles": "CO[C@H]1/C=C/O[C@@]2(C)Oc3c(C)c(O)c4c(O)c(c(/C=N/N5CCN(C)CC5)c(O)c4c3C2=O)NC(=O)/C(C)=C\\C=C\\[C@H](C)[C@H](O)[C@@H](C)[C@@H](O)[C@@H](C)[C@H](OC(C)=O)[C@@H]1C", "note": "[RIF]", "values": [{"measurement": "MIC, μg/mL in M. tuberculosis strain: M14", "value": 0.06, "unit": "µg/mL"}, {"measurement": "MIC, μg/mL in M. tuberculosis strain: M28", "value": ">8", "unit": "µg/mL"}, {"measurement": "MIC, μg/mL in M. tuberculosis strain: M70", "value": ">8", "unit": "µg/mL"}, {"measurement": "MIC, μg/mL in M. tuberculosis strain: TN5904", "value": ">8", "unit": "µg/mL"}, {"measurement": "MIC, μg/mL in M. tuberculosis strain: H37Rv", "value": 0.06, "unit": "µg/mL"}]}, {"smiles": "CN[C@@H]1[C@H](O[C@H]2[C@H](O[C@H]3[C@H](O)[C@@H](O)[C@H](N=C(N)N)[C@@H](O)[C@@H]3N=C(N)N)O[C@@H](C)[C@]2(O)C=O)O[C@@H](CO)[C@H](O)[C@H]1O", "note": "[STR]", "values": [{"measurement": "MIC, μg/mL in M. tuberculosis strain: M14", "value": ">8", "unit": "µg/mL"}, {"measurement": "MIC, μg/mL in M. tuberculosis strain: M28", "value": 0.125, "unit": "µg/mL"}, {"measurement": "MIC, μg/mL in M. tuberculosis strain: M70", "value": 2, "unit": "µg/mL"}, {"measurement": "MIC, μg/mL in M. tuberculosis strain: M94", "value": ">8", "unit": "µg/mL"}, {"measurement": "MIC, μg/mL in M. tuberculosis strain: TN5904", "value": 1, "unit": "µg/mL"}, {"measurement": "MIC, μg/mL in M. tuberculosis strain: H37Rv", "value": 0.5, "unit": "µg/mL"}]}]}
